This is an account of results in patent US5508450A, “Benzopyran derivatives” (Ono Pharmaceutical Co., Ltd., priority 1989, dated 1996).

Assay [1] deals with Lysozyme (dimer formation with fructose). The assay can be described thus: Inhibitory activity on Maillard reaction: formation of lysozyme dimer (lysozyme + fructose, SDS-PAGE, densitometer). Format: biochemical. Particulars: lysozyme 10 mg/ml, fructose 100 mM, 0.2M sodium phosphate buffer pH 7.4, 37° C., 3 days. As to the method: The inhibitory activity on Maillard reaction of the compounds of the present invention has confirmed by the screening system mentioned below. Lysozyme (10 mg/ml) and fructose (100 mM) were dissolved in 0.2M sodium phosphatic buffer solution (PH 7.4). The solution was incubated at a temperature of 37° C. for 3 days. A given volume of the reaction solution was separated using SDS-PAGE by the electrophoresis. After the electrophoresis, the SDS-PAGE was dyed by 0.2% Coomassie Brilliant Blue R-250 and then the dimer was determined by densitometer. The compounds of the present invention were added before incubation and the inhibitory activity of them against the formation of the dimer was examined in various concentrations and IC50 values were calculated.

Assay [2] relates to lipid peroxide formation in rat liver homogenate. The experiment in a line: Antioxiding effect: inhibitory activity against formation of peroxidized fat (lipid peroxide by TBA method). The class given is biochemical, Male Sprague Dawley rat. Particulars: 200 μM FeCl2, 10% rat liver homogenate, 37° C., 1 hr. As to the method:
The antioxiding effect of the compounds of the present invention has confirmed by the screening system which examines inhibitory activity against formation of peroxidized fat mentioned below. Male Sprague Dawley rat was fasted for 12 hrs (overnight) before experiments, and was anesthetized with ether. Rat liver was perfused with ice-cold 0.9% NaCl via the portal vein, and promptly excised. 10% Liver homogenates were prepared in ice-cold 1.15% KCl. The reaction was started by adding 200 μM FeCl2 to the liver homogenate ([…]), and incubated at 37° C. for 1 hr. Lipid peroxide was measured by the TBA method according to the method of Ohkawa (See Analytical Biochemistry,95, 351 (1979)). The compounds of the present invention were added before incubation. And the efficacy thereof was examined and calculated IC50 values thereof.

Another assay concerns Maillard reaction. Particulars: Brownlee et al., Science 232, 1629 (1986); cited from earlier work.
The test system of assay [3] is advanced glycosylation end products in arterial wall connective tissue protein. Particulars: administered to diabetic rats; Brownlee et al., Science 232, 1629 (1986); cited from earlier work.

Counter-ions that a name gives are not always drawn.

As a reminder, the IC50 is the concentration needed to halve the response being measured. Consider `Cc1c(C)c2c(c(C)c1O)CCC(C)(CCOC(=O)c1ccc(NC(=N)N)cc1)O2` (centres unmarked) [1 (a), 2-(6-hydroxy-2,5,7,8-tetramethyl-3,4-dihydro-2H-benzo[1,2-b]pyran-2-yl)ethyl4-quanidinobenzoate hydrochloride], for which the IC50 is 200 µM in assay [1] and 0.54 µM in assay [2].

Turning to `Cc1c(C)c2c(c(C)c1O)CCC(C)(CCOC(=O)C1CCC(CNC(=N)N)CC1)O2` (centres unmarked) [1 (b), 2-(6-hydroxy-2,5,7,8-tetramethyl-3,4-dihydro-2H-benzo[1,2-b]pyran-2-yl)ethyl4-quanidinomethylcyclohexane carboxylatehydrochloride], in assay [2], the IC50 came to 0.78 µM.

In assay [2], `Cc1c(C)c2c(c(C)c1O)CCC(C)(CCOC(=O)CCCCNC(=N)N)O2` (centres unmarked) [1 (c), 2-(6-hydroxy-2,5,7,8-tetramethyl-3,4-dihydro-2H-benzo[1,2-b]pyran-2-yl)ethyl5-quanidinopentanoate hydrochloride] returned an IC50 of 0.8 µM.

Regarding `Cc1c2c(c3ccccc3c1O)OC(C)(CCOC(=O)c1ccc(NC(=N)N)cc1)CC2` (centres unmarked) [1 (e), 2-(2,5-dimethyl-6-hydroxy-3,4-dihydro-2H-naphtho[1,2-b]pyran-2-yl)ethyl 4-quanidinobenzoatehydrochloride], the IC50 came to 50 µM in assay [1] and 0.16 µM in assay [2].

On to `Cc1c(C)c2c(c(C)c1O)CCC(C)(CCOC(=O)CCc1ccc(NC(=N)N)cc1)O2` (centres unmarked) [1 (g), 2-(6-hydroxy-2,5,7,8-tetramethyl-3,4-dihydro-2H-benzo[1,2-b]pyran-2-yl)ethyl3-(4-quanidinophenyl)-propionate hydrochloride], for which the IC50 in assay [2] was 0.9 µM.

Consider `Cc1c(C)c2c(c(C)c1O)CCC(C)(CCOC(=O)/C=C/c1ccc(NC(=N)N)cc1)O2` (centres unmarked) [1 (h), 2-(6-hydroxy-2,5,7,8-tetramethyl-3,4-dihydro-2H-benzo[1,2-b]pyran-2-yl)ethyl4-quanidinocinnamate hydrochloride], for which the values for the IC50 in assay [1] and in assay [2] were 53 µM and 0.9 µM, respectively.

As to `Cc1c2c(c3ccccc3c1O)OC(C)(CCOC(=O)c1ccc(CNC(=N)N)cc1)CC2` (centres unmarked) [1 (j), 2-(2,5-dimethyl-6-hydroxy-3,4-dihydro-2H-naphtho[1,2-b]pyran-2-yl)ethyl 4-quanidinomethylbenzoatehydrochloride], the IC50 in assay [1] turned out to be 60 µM; in assay [2] it was 0.46 µM.

`Cc1c2c(c3ccccc3c1O)OC(C)(CCOC(=O)c1cccc(NC(=N)N)c1)CC2` (centres unmarked) [1 (k), 2-(2,5-dimethyl-6-hydroxy-3,4-dihydro-2H-naphtho[1,2-b]pyran-2-yl)ethyl 3-quanidinobenzoatehydrochloride] gave an IC50 in assay [2] of 0.44 µM.

On to `Cc1c2c(c3ccccc3c1O)OC(C)(CCOC(=O)/C=C/c1ccc(NC(=N)N)cc1)CC2` (centres unmarked) [1 (l), 2-(2,5-dimethyl-6-hydroxy-3,4-dihydro-2H-naphtho[1,2-b]pyran-2-yl)ethyl 4-quanidinocinnamatehydrochloride], for which, in assay [2], the IC50 was 0.38 µM.

For the compound `Cc1c(C)c2c(c(C)c1O)CCC(C)(CCOC(=O)c1ccc(N(C)C(=N)N)cc1)O2` (centres unmarked) [1 (m), 2-(6-hydroxy-2,5,7,8-tetramethyl-3,4-dihydro-2H-benzo[1,2-b]pyran--2-yl)ethyl 4-(1-methylquanidino)-benzoate hydrochloride], the concentration for half-maximal inhibition (IC50) amounted to 440 µM in assay [1] and 0.6 µM in assay [2].

Compound `Cc1c(C)c2c(c(C)c1O)CCC(C)(CCNC(=O)C1CCC(CNC(=N)N)CC1)O2` (centres unmarked) [2 (a), N-[2-(6-hydroxy-2,4,7,8-tetramethyl-3,4-dihydro-2H-benzo[1,2-b]pyran-2-yl)-ethyl]-4-quanidinomethyl-cyclohexanecarboxamide hydrochloride] gave an IC50 in assay [2] of 0.78 µM.

Regarding `Cc1c(C)c2c(c(C)c1O)CCC(C)(CCNC(=O)c1ccc(CNC(=N)N)cc1)O2` (centres unmarked) [2 (b), N-[2-(6-hydroxy-2,4,7,8-tetramethyl-3,4-dihydro-2H-benzo[1,2-b]pyran-2-yl)-ethyl]-4-quanidinomethyl-benzamide hydrochloride], the IC50 in assay [2] turned out to be 0.47 µM.

`Cc1c(C)c2c(c(C)c1O)CCC(C)(CCOC(=O)c1ccc(CNC(=N)N)cc1)O2` (centres unmarked) [Example 1, 2-(6-hydroxy-2,5,7,8-tetramethyl-3,4-dihydro-2H-benzo[1,2-b]pyran-2-yl)ethyl 4-guanidinomethylbenzoate hydrochloride] came in with an IC50 in assay [2] of 0.6 µM.

On to `Cc1c(C)c2c(c(C)c1O)CCC(C)(CCNC(=O)c1ccc(NC(=N)N)cc1)O2` (centres unmarked) [Example 2, N-[2-(6-hydroxy-2,5,7,8-tetramethyl-3,4-dihydro-2H-benzo[1,2-b]pyran-2-yl)ethyl]-4-guanidinobenzamide hydrochloride], for which the half-inhibitory concentration (IC50) in assay [1] amounted to 450 µM; in assay [2], 0.66 µM.

Turning to `Cc1c(C)c2c(c(C)c1O)CCC(C)(CCNC(=N)NN)O2` (centres unmarked) [Example 3, 1-amino-3-[2-(6-hydroxy-2,5,7,8-tetramethyl-3,4-dihydro-2H-benzo[1,2-b]pyran-2-yl)ethyl]guanidine hydroiodide], the 50% inhibitory concentration (IC50) came to 360 µM in assay [1] and 0.54 µM in assay [2].

As for `Cc1c(C)c2c(c(C)c1O)CCC(C)(CCOCCNC(=O)/C=C/c1ccc(NC(=N)N)cc1)O2` (centres unmarked) [Example 21, N-[2-[2-(6-hydroxy-2,5,7,8-tetramethyl-3,4-dihydro-2H-benzo[1,2-b]pyran-2-yl)ethoxy]ethyl]-4-guanidinocinnamamide hydrochloride], the IC50 in assay [1] is 220 µM.

Regarding `Cc1c(C)c2c(c(C)c1O)CCC(C)(CCCCNC(=O)/C=C/c1ccc(NC(=N)N)cc1)O2` (centres unmarked) [Example 22, N-[4-(6-hydroxy-2,5,7,8-tetramethyl-3,4-dihydro-2H-benzo[1,2-b]pyran-2-yl)butyl]-4-guanidinocinnamamide hydrochloride], the IC50 in assay [1] was found to be 48 µM.

Turning to `Cc1c(C)c2c(c(C)c1O)CCC(C)(CC=CCCCCNC(=N)NN)O2` (centres unmarked) [Example 23, 2-[7-(3-aminoguanidino)hept-2-enyl]-6-hydroxy-2,5,7,8-tetramethyl-3,4-dihydro-2H-benzo[1,2,-b]pyran hydroiodide], the IC50 in assay [1] came out at 130 µM.

In the case of `Cc1c(C)c2c(c(C)c1O)CCC(C)(CCN(C)C(=O)/C=C/c1ccc(NC(=N)N)cc1)O2` (centres unmarked) [Example 24, N-methyl-N-[2-(6-hydroxy-2,5,7,8-tetramethyl-3,4-dihydro2H-benzo[1,2-b]pyran-2-yl)ethyl]-4-guanidinocinnamamide hydrochloride], the IC50 in assay [1] was determined as 180 µM.

As for `Cc1c(C)c2c(c(C)c1O)CCC(C)(CCOCCNC(=N)NN)O2` (centres unmarked) [Example 26, 2-(3-aminoguanidino)ethyl 2-(6-hydroxy-2,5,7,8-tetramethyl-3,4-dihydro-2H-benzo[1,2-b]pyran-2-yl)ethyl ether hydrochloride], the IC50 in assay [1] came to 270 µM.

As for `Cc1c(C)c2c(c(C)c1O)CCC(C)(CCOc1ccc(CCOc3ccc(NC(=N)N)cc3)cc1)O2` (centres unmarked) [Example 27, 4-guanidinophenyl 2-[4-[2-(6-hydroxy-2,5,7,8-tetramethyl-3,4-dihydro-2H-benzo[1,2-b]pyran-2-yl)ethoxy]phenyl]ethyl ether hydrochloride], in assay [1], the IC50 came out at 5.8 µM.

Consider `Cc1c(C)c2c(c(C)c1O)CCC(C)(CCCCCCSc1ccc(NC(=N)N)cc1)O2` (centres unmarked) [Example 29, 4-guanidinophenyl 6-(6-hydroxy-2,5,7,8-tetramethyl-3,4-dihydro-2H-benzo[1,2-b]pyran-2-yl)-n-hexyl thioether hydrochloride], for which the half-maximal inhibitory concentration (IC50) in assay [1] turned out to be 7.5 µM.

In the case of `N=C(N)NN` [aminoguanidine], in the assay on Maillard reaction, the “inhibition of Maillard reaction in vitro” value is “inhibits Maillard reaction in vitro”. Moreover, in assay [3], the “inhibition of diabetes-induced accumulation of advanced glycosylation end products in arterial wall connective tissue protein” value is listed as “inhibits diabetes-induced accumulation of advanced glycosylation end products in arterial wall connective tissue protein”.

As to “N-[4-[2-(6-hydroxy-2,5,7,8-tetramethyl-3,4-dihydro-2H-benzo[1,2-b]pyran-2-yl)-ethoxy]phenyl]-3-guanidino-cinnamamide hydrochloride [7 (b)]”, the IC50 in assay [1] came to 12 µM.
